The record followed here is US12371428B2 (Exelixis, Inc., priority 2019, dated 2025).

Holding throughout (assay type): cell-based
The target in assay [1] is Met (phospho-Met, HGF-stimulated PC-3 prostate cancer cells) (Homo sapiens (Human), UniProt P08581). The experiment in a line: Met autophosphorylation ELISA in PC-3 cells (Example F). Conditions: cellular activity; Met autophosphorylation ELISA in PC-3 cells; read-out: c-Met IC50. In outline: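 Sandwich ELISA for phospho-Met (panTyr) in PC-3 lysates. Cells starved 3 h serum-free, compound 1 h (8-pt curve, 0.3% DMSO), HGF 100 ng/mL 10 min. 100% = HGF + DMSO; 0% = HGF + reference inhibitor. IC50 by 4-parameter fit.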
(In general: ELISA stands for enzyme-linked immunosorbent assay.)

The target in assay [2] is Mer (phospho-Mer, MERTK-transfected 293A cells) (Homo sapiens (Human), UniProt Q12866). The experiment in a line: Mer autophosphorylation ELISA in transient transfected 293A cells (Example H). To be noted: cellular activity; Mer autophosphorylation ELISA in transient transfected 293A cells. The gist of the method:
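Inhibition of cellular Mer autophosphorylation is determined in 293A cells transiently expressing human MERTK after 1 h compound exposure (8 concentrations, serum-free, 0.3% DMSO). Phospho-Mer in clarified lysates is measured by ELISA, with DMSO and reference-inhibitor wells defining the 100% and 0% activity limits.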

In assay [3] the target is KDR (phospho-KDR, VEGF165-stimulated HUVEC cells) (Homo sapiens (Human), UniProt P35968). In words: KDR autophosphorylation ELISA in HUVEC cells (Example G). Conditions: cellular activity; KDR autophosphorylation ELISA in HUVEC cells. The gist of the method: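 HUVECs were serum-starved 24 h, given compound as an 8-point dilution series (0.3% DMSO final) for 1 h, then stimulated with 100 ng/mL VEGF165 for 5 min. Lysate phospho-KDR was quantified by sandwich ELISA against a phospho-KDR standard, and IC50s came from a 4-parameter logistic fit.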
Sequence of KDR (phospho-KDR, VEGF165-stimulated HUVEC cells) (P35968 20-1356): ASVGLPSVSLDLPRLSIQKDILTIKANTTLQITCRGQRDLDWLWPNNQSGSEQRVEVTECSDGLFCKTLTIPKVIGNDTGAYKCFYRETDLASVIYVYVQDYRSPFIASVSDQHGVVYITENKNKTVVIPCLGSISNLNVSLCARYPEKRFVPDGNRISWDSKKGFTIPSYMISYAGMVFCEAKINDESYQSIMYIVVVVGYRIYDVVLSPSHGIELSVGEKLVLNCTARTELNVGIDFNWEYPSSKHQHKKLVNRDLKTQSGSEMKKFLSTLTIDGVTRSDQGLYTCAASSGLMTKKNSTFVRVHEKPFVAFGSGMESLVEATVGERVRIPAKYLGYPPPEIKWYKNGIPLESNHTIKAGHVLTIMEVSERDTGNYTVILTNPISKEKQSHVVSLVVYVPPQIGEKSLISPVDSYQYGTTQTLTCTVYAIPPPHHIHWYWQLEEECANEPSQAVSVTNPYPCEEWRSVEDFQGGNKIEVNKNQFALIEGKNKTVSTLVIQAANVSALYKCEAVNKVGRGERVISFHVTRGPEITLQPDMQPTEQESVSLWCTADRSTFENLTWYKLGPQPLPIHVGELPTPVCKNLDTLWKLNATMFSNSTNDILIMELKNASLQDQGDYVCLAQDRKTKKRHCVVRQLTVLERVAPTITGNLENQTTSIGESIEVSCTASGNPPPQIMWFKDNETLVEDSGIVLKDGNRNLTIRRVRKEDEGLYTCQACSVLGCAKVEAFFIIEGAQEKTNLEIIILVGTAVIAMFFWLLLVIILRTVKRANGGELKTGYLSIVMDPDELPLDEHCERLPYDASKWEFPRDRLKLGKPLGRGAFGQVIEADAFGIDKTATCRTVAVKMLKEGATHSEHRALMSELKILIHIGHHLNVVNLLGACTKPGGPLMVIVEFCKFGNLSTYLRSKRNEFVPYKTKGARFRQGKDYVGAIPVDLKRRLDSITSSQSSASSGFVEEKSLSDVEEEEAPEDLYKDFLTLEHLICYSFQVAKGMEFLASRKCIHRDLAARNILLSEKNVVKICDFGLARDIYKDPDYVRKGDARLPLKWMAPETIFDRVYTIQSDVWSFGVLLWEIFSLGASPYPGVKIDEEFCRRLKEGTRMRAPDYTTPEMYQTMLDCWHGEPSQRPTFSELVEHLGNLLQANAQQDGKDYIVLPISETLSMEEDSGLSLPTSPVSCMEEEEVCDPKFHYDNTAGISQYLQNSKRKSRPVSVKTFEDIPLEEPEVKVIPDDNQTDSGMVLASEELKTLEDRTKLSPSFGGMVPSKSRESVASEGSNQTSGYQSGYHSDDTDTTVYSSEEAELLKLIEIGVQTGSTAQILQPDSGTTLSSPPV

Sequence of Mer (phospho-Mer, MERTK-transfected 293A cells) (Q12866 21-999): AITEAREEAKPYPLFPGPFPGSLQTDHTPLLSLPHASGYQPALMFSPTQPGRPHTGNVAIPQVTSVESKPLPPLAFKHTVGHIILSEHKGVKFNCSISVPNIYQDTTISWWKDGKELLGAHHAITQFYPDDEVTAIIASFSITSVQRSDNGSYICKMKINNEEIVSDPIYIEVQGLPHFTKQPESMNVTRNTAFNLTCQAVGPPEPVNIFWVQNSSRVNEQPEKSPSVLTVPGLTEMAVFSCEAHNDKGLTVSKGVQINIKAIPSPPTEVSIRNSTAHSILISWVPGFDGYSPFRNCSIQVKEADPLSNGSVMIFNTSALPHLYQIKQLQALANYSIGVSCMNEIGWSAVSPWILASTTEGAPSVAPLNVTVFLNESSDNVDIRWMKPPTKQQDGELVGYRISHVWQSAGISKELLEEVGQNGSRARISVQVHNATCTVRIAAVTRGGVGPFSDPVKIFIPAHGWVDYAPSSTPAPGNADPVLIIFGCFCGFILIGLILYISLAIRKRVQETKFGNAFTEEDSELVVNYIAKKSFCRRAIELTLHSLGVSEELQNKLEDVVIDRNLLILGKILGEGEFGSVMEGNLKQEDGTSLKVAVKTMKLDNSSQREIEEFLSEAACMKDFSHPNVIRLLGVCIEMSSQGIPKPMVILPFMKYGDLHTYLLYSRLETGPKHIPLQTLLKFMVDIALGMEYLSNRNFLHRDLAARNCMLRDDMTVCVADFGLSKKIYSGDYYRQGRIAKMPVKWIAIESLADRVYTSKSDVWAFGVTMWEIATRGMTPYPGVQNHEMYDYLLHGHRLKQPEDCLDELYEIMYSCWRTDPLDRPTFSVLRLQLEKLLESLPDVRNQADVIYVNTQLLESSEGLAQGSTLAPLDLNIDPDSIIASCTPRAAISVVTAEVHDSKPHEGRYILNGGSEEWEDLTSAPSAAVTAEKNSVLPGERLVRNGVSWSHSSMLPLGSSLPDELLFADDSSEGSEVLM
Sequence of Met (phospho-Met, HGF-stimulated PC-3 prostate cancer cells) (P08581 25-1390): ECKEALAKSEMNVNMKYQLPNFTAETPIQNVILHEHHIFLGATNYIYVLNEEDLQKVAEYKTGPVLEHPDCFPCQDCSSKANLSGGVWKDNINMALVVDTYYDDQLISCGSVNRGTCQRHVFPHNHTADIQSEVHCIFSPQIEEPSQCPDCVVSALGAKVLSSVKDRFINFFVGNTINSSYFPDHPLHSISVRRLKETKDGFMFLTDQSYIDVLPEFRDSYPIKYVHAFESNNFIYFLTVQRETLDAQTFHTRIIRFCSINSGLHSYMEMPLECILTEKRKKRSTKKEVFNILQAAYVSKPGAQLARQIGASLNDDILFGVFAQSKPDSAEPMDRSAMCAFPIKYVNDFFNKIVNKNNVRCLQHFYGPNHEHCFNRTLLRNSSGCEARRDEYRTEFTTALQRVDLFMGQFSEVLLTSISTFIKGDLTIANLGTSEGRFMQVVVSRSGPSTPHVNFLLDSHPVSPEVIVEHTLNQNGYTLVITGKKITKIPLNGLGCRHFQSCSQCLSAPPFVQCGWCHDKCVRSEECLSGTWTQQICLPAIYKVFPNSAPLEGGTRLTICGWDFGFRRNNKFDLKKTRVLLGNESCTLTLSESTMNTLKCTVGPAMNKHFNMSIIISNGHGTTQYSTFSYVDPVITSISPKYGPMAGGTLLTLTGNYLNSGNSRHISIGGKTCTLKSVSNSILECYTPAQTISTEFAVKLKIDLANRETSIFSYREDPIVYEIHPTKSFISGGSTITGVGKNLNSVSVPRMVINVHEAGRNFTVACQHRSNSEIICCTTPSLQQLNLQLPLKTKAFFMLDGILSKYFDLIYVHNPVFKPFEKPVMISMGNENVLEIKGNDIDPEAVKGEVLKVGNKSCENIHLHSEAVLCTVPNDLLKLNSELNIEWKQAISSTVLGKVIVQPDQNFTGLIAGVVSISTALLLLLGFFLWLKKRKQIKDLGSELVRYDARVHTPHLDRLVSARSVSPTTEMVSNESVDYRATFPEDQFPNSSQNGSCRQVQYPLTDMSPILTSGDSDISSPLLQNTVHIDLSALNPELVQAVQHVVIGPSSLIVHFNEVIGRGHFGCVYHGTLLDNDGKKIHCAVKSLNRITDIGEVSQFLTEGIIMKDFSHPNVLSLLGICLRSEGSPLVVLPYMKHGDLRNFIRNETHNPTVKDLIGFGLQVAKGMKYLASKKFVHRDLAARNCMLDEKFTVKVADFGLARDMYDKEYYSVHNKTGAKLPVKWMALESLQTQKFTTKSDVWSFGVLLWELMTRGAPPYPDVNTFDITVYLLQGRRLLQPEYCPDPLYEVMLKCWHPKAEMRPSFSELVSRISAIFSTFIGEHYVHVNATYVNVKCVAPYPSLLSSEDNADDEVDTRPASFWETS

For `COc1cc2nccc(Oc3ccc(NC(=O)c4cnc(C)n(-c5ccc(F)cc5)c4=O)cc3F)c2nc1OC` [Compound 97, N-[4-[(6,7-Dimethoxy-1,5-naphthyridin-4-yl)oxy]-3-fluorophenyl]-1-(4-fluorophenyl)-2-methyl-6-oxopyrimidine-5-carboxamide], the IC50 in assay [1], in assay [2] and in assay [3] was < 100 nM each time.

For the compound `COc1cc2nccc(Oc3ccc(NC(=O)c4c(C)ncn(-c5ccc(F)cc5)c4=O)cc3F)c2nc1OC` [Compound 98, N-[4-[(6,7-Dimethoxy-1,5-naphthyridin-4-yl)oxy]-3-fluorophenyl]-1-(4-fluorophenyl)-4-methyl-6-oxopyrimidine-5-carboxamide], the concentration for half-maximal inhibition (IC50) in assay [1], in assay [2] and in assay [3] was < 100 nM each time.

As to `COc1cc2nccc(Oc3ccc(NC(=O)c4cnc(N(C)C)n(-c5ccc(F)cc5)c4=O)cc3F)c2nc1OC` [Compound 100, N-[4-[(6,7-Dimethoxy-1,5-naphthyridin-4-yl)oxy]-3-fluorophenyl]-2-(dimethylamino)-1-(4-fluorophenyl)-6-oxopyrimidine-5-carboxamide], the IC50 in assay [1], in assay [2] and in assay [3] was < 100 nM each time.

As to `COc1cc2nccc(Oc3ccc(NC(=O)c4c(C)nc(C)n(-c5ccc(F)cc5)c4=O)cc3F)c2nc1OC` [Compound 101, N-[4-[(6,7-Dimethoxy-1,5-naphthyridin-4-yl)oxy]-3-fluorophenyl]-1-(4-fluorophenyl)-2,4-dimethyl-6-oxopyrimidine-5-carboxamide], the IC50 in assay [1], in assay [2] and in assay [3] was < 100 nM each time.

For the compound `COc1cc2nccc(Oc3ccc(NC(=O)c4c[nH]c(=O)n(-c5ccc(F)cc5)c4=O)cc3F)c2nc1OC` [Compound 102, N-[4-[(6,7-Dimethoxy-1,5-naphthyridin-4-yl)oxy]-3-fluorophenyl]-3-(4-fluorophenyl)-2,4-dioxo-1H-pyrimidine-5-carboxamide], the 50% inhibitory concentration (IC50) in assay [1], in assay [2] and in assay [3] was < 100 nM each time.

For `COc1ccc2c(Oc3ccc(NC(=O)c4cnc(C)c(-c5ccc(F)cc5)c4O)cc3F)ccnc2c1` [Compound 105, N-[3-Fluoro-4-(7-methoxyquinolin-4-yl)oxyphenyl]-5-(4-fluorophenyl)-4-hydroxy-6-methylpyridine-3-carboxamide], the IC50 in assay [1], in assay [2] and in assay [3] was < 100 nM throughout.

For `COc1ccc2c(Oc3ccc(NC(=O)c4cn(C(C)C)c(C)c(-c5ccc(F)cc5)c4=O)cc3F)ccnc2c1` [Compound 106, N-[3-Fluoro-4-(7-methoxyquinolin-4-yl)oxyphenyl]-5-(4-fluorophenyl)-6-methyl-4-oxo-1-propan-2-ylpyridine-3-carboxamide], the IC50 (as a rule, the concentration at which inhibition is half-maximal) is < 100 nM in assay [1], < 100 nM in assay [2] and 100 to 300 nM in assay [3].

In the case of `CCn1cc(C(=O)Nc2ccc(Oc3ccnc4cc(OC)ccc34)c(F)c2)c(=O)c(-c2ccc(F)cc2)c1C` [Compound 107, 1-Ethyl-N-[3-fluoro-4-(7-methoxyquinolin-4-yl)oxyphenyl]-5-(4-fluorophenyl)-6-methyl-4-oxopyridine-3-carboxamide], the 50% inhibitory concentration (IC50) in assay [1] is 100 to 300 nM; in assay [2] it was < 100 nM; in assay [3], 100 to 300 nM.

Consider `COc1ccc2c(Oc3ccc(NC(=O)c4cnc(C)c(-c5ccc(F)cc5)c4O)cc3)ccnc2c1` [Compound 108, 5-(4-Fluorophenyl)-4-hydroxy-N-[4-(7-methoxyquinolin-4-yl)oxyphenyl]-6-methylpyridine-3-carboxamide], for which the IC50 is 100 to 300 nM in assay [1], < 100 nM in assay [2] and < 100 nM in assay [3].

Regarding `COc1cc2nccc(Oc3ccc(NC(=O)c4cnc(C)c(-c5ccc(F)cc5)c4O)cc3F)c2cc1OC` [Compound 109, N-[4-(6,7-Dimethoxyquinolin-4-yl)oxy-3-fluorophenyl]-5-(4-fluorophenyl)-4-hydroxy-6-methylpyridine-3-carboxamide], the IC50 in assay [1], in assay [2] and in assay [3] was < 100 nM each time.

`COc1cnc2c(Oc3ccc(NC(=O)c4cn(C)c(C)c(-c5ccc(F)cc5)c4=O)cc3)ccnc2c1` [Compound 111, 5-(4-Fluorophenyl)-N-[4-[(7-methoxy-1,5-naphthyridin-4-yl)oxy]phenyl]-1,6-dimethyl-4-oxopyridine-3-carboxamide]: the IC50 was 100 to 300 nM in assay [1], < 100 nM in assay [2] and > 300 nM in assay [3].

Regarding `COc1cnc2c(Oc3ccc(NC(=O)c4cn(C)cc(-c5ccc(F)cc5)c4=O)cc3F)ccnc2c1` [Compound 112, N-[3-Fluoro-4-[(7-methoxy-1,5-naphthyridin-4-yl)oxy]phenyl]-5-(4-fluorophenyl)-1-methyl-4-oxopyridine-3-carboxamide], the figures for the IC50 in assay [1], in assay [2] and in assay [3] were < 100 nM, < 100 nM and > 300 nM, respectively.

As to `COc1ccc2nccc(Oc3ccc(NC(=O)c4cn(C)c(C)c(-c5ccc(F)cc5)c4=O)cc3F)c2n1` [Compound 113, N-[3-Fluoro-4-[(6-methoxy-1,5-naphthyridin-4-yl)oxy]phenyl]-5-(4-fluorophenyl)-1,6-dimethyl-4-oxopyridine-3-carboxamide], the IC50 in assay [1] was < 100 nM; in assay [2], < 100 nM; in assay [3] it was > 300 nM.

On to `COc1cc2nccc(Oc3ccc(NC(=O)c4cn(C(C)C)c(C)c(-c5ccc(F)cc5)c4=O)cc3)c2nc1OC` [Compound 115, N-[4-[(6,7-Dimethoxy-1,5-naphthyridin-4-yl)oxy]phenyl]-5-(4-fluorophenyl)-6-methyl-4-oxo-1-propan-2-ylpyridine-3-carboxamide], for which the figures for the 50% inhibitory concentration (IC50) in assay [1], in assay [2] and in assay [3] were < 100 nM, < 100 nM and > 300 nM, respectively.

On to `CCn1cc(C(=O)Nc2ccc(Oc3ccnc4cc(OC)c(OC)nc34)c(F)c2)c(=O)c(-c2ccc(F)cc2)c1` [Compound 116, N-[4-[(6,7-Dimethoxy-1,5-naphthyridin-4-yl)oxy]-3-fluorophenyl]-1-ethyl-5-(4-fluorophenyl)-4-oxopyridine-3-carboxamide], for which the concentration for half-maximal inhibition (IC50) in assay [1], in assay [2] and in assay [3] was < 100 nM each time.

With `COc1cc2nccc(Oc3ccc(NC(=O)c4cn(CCO)cc(-c5ccc(F)cc5)c4=O)cc3F)c2nc1OC` [Compound 117, N-[4-[(6,7-Dimethoxy-1,5-naphthyridin-4-yl)oxy]-3-fluorophenyl]-5-(4-fluorophenyl)-1-(2-hydroxyethyl)-4-oxopyridine-3-carboxamide], the IC50 in assay [1], in assay [2] and in assay [3] was < 100 nM each time.

For the compound `COc1cc2nccc(Oc3ccc(NC(=O)c4cncc(-c5ccc(F)cc5)c4O)cc3)c2nc1OC` [Compound 118, N-[4-[(6,7-Dimethoxy-1,5-naphthyridin-4-yl)oxy]phenyl]-5-(4-fluorophenyl)-4-hydroxypyridine-3-carboxamide], the 50% inhibitory concentration (IC50) in assay [1], in assay [2] and in assay [3] was < 100 nM each time.
